Experimental data reported in US4409210A, “Antibiotic compound” (priority 1982, dated 1983).
*1 amine or outer side, *2 acyl side, *3 side chain or, on linkers, in order; H or OH if unused. Where a SMILES comes first, the peptide text is derived from it. Bridges are numbered along the chain shown (N, C = ends). [ ]: non-standard residue; d: D form. ξ: configuration not given here. X2 = CCCCCCCCCCCC(CC(=O)[*:1])O[*:2]; ξAsp(3ξ-OH) = NC(C(=O)O)C(O)C(=O)O; X1 = O=C(C1C(O)CCN1[*:1])[*:2]

System: Clindamycin-erythromycin-resistant strains of C. difficile and C. perfringens
Assay type: cell-based

With `CCCCCCCCCCCC1CC(=O)N2CCCC2C(=O)NC(CO)C(=O)N2CCCC2C(=O)NC(CCCNC(=N)N)C(=O)NC(C(O)C(=O)O)C(=O)NC(CO)C(=O)N2CCC(O)C2C(=O)NC(C(O)C(=O)O)C(=O)O1` (stereo not shown) [Bu-2517] (PSPR[ξAsp(3ξ-OH)]S[X1][ξAsp(3ξ-OH)]; linker N-C via X2; configuration not given here) the “concentration to which strains were susceptible” value was 1.6 to 3.1 µg/mL.
